Experiments:
Type in all cases: cell-based
F508del = target: T1, F508del (Homo sapiens, UniProt P13569, DEL508-508); experiment: 3T3 assay: membrane potential optical assay for F508del correction in NIH 3T3 cells; details: for Emax: NIH3T3, read-out: 3T3 Max Activity
T1 construct: expressed in transfected cells
Text: 1. Membrane Potential Optical Methods for Assaying F508del Modulation Properties of Compounds
The assay utilizes fluorescent voltage sensing dyes to measure changes in membrane potential using a fluorescent plate reader (e.g., FLIPR III, Molecular Devices, Inc.) as a readout for increase in functional F508del in NIH 3T3 cells. The driving force for the response is the creation of a chloride ion gradient in conjunction with channel activation by a single liquid addition step after the cells have previously been treated with compounds and subsequently loaded with a voltage sensing dye.
2. Identification of Corrector Compounds
To identify correctors of F508del, a single-addition HTS assay format was developed. This HTS assay utilizes fluorescent voltage sensing dyes to measure changes in membrane potential on the FLIPR III as a measurement for increase in gating (conductance) of F508del in F508del NIH 3T3 cells. The F508del NIH 3T3 cell cultures were incubated with the corrector compounds at a range of concentrations for 18-24 hours at 37° C., and subsequently loaded with a redistribution dye. The driving force for the response is a Cl^− ion gradient in conjunction with channel activation with forskolin in a single liquid addition step using a fluorescent plate reader such as FLIPR III.
Bath Solution #1: (in mM) NaCl 160, KCl 4.5, CaCl2) 2, MgCl2 1, HEPES 10, pH 7.4 with NaOH.
Chloride-free bath solution: Chloride salts in Bath Solution #1 (above) are substituted with gluconate salts.
NIH3T3 mouse fibroblasts stably expressing F508del are used for optical measurements of membrane potential. The cells are maintained at 37° C. in 5% CO2 and 90% humidity in Dulbecco's modified Eagle's medium supplemented with 2 mM glutamine, 10% fetal bovine serum, 1×NEAA, b-ME, 1×pen/strep, and 25 mM HEPES in 175 cm^2 culture flasks. For all optical assays, the cells were seeded at ˜20,000/well in 384-well matrigel-coated plates. For the correction assays, the cells are cultured at 37° C. with and without compounds for 16-24 hours.

CFTR [1] = target: T2, CFTR (Homo sapiens, UniProt P13569); experiment: Membrane Potential Dye, Enteroid Assay A; details: for EC50: read-out: Ent. A EC50
T2 sequence (P13569 with tags, fused parts or gaps DEL508-508): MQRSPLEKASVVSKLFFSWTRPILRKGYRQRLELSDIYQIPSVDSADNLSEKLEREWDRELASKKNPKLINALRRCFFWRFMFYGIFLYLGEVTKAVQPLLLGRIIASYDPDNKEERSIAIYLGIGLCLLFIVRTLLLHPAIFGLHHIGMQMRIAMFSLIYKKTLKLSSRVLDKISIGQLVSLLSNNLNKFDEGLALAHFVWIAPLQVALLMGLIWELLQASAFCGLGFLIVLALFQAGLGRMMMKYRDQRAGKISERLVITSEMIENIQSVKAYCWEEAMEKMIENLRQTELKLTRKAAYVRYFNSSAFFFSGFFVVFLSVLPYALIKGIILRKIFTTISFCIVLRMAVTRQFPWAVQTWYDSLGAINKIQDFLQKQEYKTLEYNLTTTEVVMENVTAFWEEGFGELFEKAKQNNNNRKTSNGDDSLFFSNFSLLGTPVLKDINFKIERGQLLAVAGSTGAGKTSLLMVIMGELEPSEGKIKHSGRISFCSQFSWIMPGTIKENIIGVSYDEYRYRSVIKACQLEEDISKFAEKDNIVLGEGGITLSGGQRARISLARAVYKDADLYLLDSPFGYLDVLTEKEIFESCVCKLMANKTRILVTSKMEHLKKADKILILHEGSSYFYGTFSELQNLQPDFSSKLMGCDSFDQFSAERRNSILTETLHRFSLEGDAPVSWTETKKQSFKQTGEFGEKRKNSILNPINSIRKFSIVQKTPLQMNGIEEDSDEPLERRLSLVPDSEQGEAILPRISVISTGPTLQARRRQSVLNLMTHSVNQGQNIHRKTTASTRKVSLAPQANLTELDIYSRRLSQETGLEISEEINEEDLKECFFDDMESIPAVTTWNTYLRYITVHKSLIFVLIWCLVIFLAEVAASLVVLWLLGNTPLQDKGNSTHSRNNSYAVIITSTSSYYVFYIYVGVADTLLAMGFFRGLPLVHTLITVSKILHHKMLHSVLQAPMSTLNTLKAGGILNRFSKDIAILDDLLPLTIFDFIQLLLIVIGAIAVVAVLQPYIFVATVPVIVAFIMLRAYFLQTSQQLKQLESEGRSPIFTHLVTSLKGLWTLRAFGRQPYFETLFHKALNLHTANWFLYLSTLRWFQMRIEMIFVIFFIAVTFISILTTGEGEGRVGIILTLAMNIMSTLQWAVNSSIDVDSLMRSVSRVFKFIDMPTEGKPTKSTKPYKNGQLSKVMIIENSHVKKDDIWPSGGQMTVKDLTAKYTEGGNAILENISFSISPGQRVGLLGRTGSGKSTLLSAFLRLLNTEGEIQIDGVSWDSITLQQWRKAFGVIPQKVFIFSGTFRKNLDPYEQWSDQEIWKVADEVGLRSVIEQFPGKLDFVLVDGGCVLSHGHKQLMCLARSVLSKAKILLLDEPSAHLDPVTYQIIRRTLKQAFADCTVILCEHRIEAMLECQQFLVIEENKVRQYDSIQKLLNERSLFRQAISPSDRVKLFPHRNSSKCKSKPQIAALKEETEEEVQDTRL
In short: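 Enteroid cells were loaded with methyl oxonol membrane potential dye (plus CaCCinh-A01 and Chicago Sky Blue) for 25 min at room temperature. Chloride transport was started by switching to chloride-free gluconate stimulation solution, with fluorescence read for 15 min. Activity was expressed as % of a triple-combination CFTR modulator control (3 μM, 3 μM, 300 nM acute).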

CFTR [2] = target: T2, CFTR; experiment: Membrane Potential Dye, Enteroid Assay B; details: for EC50: read-out: Ent. B EC50
Procedure: Base medium (ADF+++) consisted of Advanced DMEM/Ham's F12, 2 mM Glutamax, 10 mM HEPES, […] penicillin/streptomycin.
Bath 1 Buffer consisted of 1 mM MgCl2, 160 mM NaCl, 4.5 mM KCl, 10 mM HEPES, 10 mM Glucose, 2 mM CaCl2).
Chloride Free Buffer consisted of 1 mM Magnesium Gluconate, 2 mM Calcium Gluconate, 4.5 mM Potassium Gluconate, 160 mM Sodium Gluconate, 10 mM HEPES, 10 mM Glucose.
Bath 1 Dye Solution consisted of Bath 1 Buffer, 0.04% Pluronic F127, 20 μM Methyl Oxonol, 30 μM CaCCinh-A01, 30 μM Chicago Sky Blue.
Chloride Free Dye Solution consisted of Chloride Free Buffer, 0.04% Pluronic F127, 20 μM Methyl Oxonol, 30 μM CaCCinh-A01, 30 μM Chicago Sky Blue.
3. Enteroid Cell Harvesting and Seeding
Cells were recovered in cell recovery solution, collected by centrifugation at 650 rpm for 5 min at 4° C., resuspended in TryPLE and incubated for 5 min at 37° C. Cells were then collected by centrifugation at 650 rpm for 5 min at 4° C. and resuspended in IEMM containing 10 μM ROCK inhibitor (RI).
5. Membrane Potential Dye, Enteroid Assay B
Briefly, cells were washed 5 times in Bath 1 Buffer. Bath 1 Dye Solution was added and the cells were incubated for 25 min at room temperature. Following dye incubation, cells were washed 3 times in Chloride Free Dye Solution. Chloride transport was initiated by addition of Chloride Free Dye Stimulation Solution and the fluorescence signal was read for 15 min.

T1 sequence (P13569 with tags, fused parts or gaps DEL508-508): as above

| Structure (SMILES) | Ent. B Max Activity (CFTR [2]; Table 9) | EC50 (CFTR [2]; Table 9) [nM] | Ent. A Max Activity (CFTR [1]; Table 9) | EC50 (CFTR [1]; Table 9) [nM] | other results |
| --- | --- | --- | --- | --- | --- |
| Cc1cccc(C)c1-c1cc2nc(n1)NS(=O)(=O)c1cccc(c1)C(=O)N[C@H](C1CCCCC1)CO2 [Compound 493] |  |  |  |  | Emax (F508del; Table 8): > 60%; EC50 (F508del; Table 8): < 1000 nM; Ent. A Max Activity (CFTR [1]; Table 8): +++ (+++ is >60%); EC50 (CFTR [1]; Table 8): < 1000 nM |
| Cc1cccc(C)c1-c1cc2nc(n1)NS(=O)(=O)c1cccc(c1)C(=O)N[C@H](CC1CCCCC1)[C@H](C)O2 [Compound 143] |  |  |  |  | Emax (F508del; Table 8): > 60%; EC50 (F508del; Table 8): < 1000 nM; Ent. A Max Activity (CFTR [1]; Table 8): +++ (+++ is >60%); EC50 (CFTR [1]; Table 8): < 1000 nM |
| Cc1cccc(C)c1-c1cc2nc(n1)NS(=O)(=O)c1cccc(c1)C(=O)NC[C@@H](C1CCCCC1)O2 [Compound 269] |  |  |  |  | Emax (F508del; Table 8): > 60%; EC50 (F508del; Table 8): < 1000 nM |
| Cc1cccc(CC2CC2)c1-c1cc2nc(n1)NS(=O)(=O)c1cccc(c1)C(=O)N[C@H](CC(C)C)CO2 [Compound 107, (11R)-6-[2-(cyclopropylmethyl)-6-methyl-phenyl]-11-isobutyl-2,2-dioxo-9-oxa-2λ^6-thia-3,5,12,19-tetrazatricyclo[12.3.1.14,8]nonadeca-1(18),4(19),5,7,14,16-hexaen-13-one] | +++ (+++ is >60%) | < 1000 | +++ (+++ is >60%) | < 1000 |  |
| Cc1cccc(C)c1-c1cc2nc(n1)NS(=O)(=O)c1cccc(c1)C(=O)N[C@H](CC(C)C)[C@@H](c1ccc(C(C)(C)C)cc1)O2 (single isomer, unassigned) [Compound 39] | +++ (+++ is >60%) | < 1000 | +++ (+++ is >60%) | < 1000 |  |
| Cc1ccc(C2CNC(=O)c3cccc(c3)S(=O)(=O)Nc3nc(cc(-c4c(C)cccc4C)n3)O2)cc1 (stereo not drawn) [Compound 405] |  |  |  |  | Ent. B Max Activity (CFTR [2]; Table 8): ++ (++ is 306%); EC50 (CFTR [2]; Table 8): < 1000 nM; EC50 (CFTR [1]; Table 8): < 1000 nM |
| Cc1cccc(C)c1-c1cc2nc(n1)NS(=O)(=O)c1cccc(c1)C(=O)N[C@@H](C(CC(C)C)c1ccccc1)CO2 (stereo in doubt) [Compound 181] | +++ (+++ is >60%) | < 1000 | +++ (+++ is >60%) | < 1000 |  |
| Cc1cccc(C)c1-c1cc2nc(n1)NS(=O)(=O)c1cccc(c1)C(=O)N[C@@H]1CN(C3CC4(CCCCC4)C3)C[C@H]1O2 [Compound 377] | ++ (++ is 30-60%) | < 1000 | +++ (+++ is >60%) | < 1000 |  |
| Cc1ccc2cc1C(=O)N[C@H](CC1CCCCC1)COc1cc(-c3c(C)cccc3C)nc(n1)NS2(=O)=O [Compound 161] |  |  |  |  | EC50 (F508del; NIH 3T3 cells, F508del correction): 3000 to 30000 nM |
| Cc1cccc(C)c1-c1cc2nc(n1)NS(=O)(=O)c1cccc(c1)C(=O)N[C@H](C)CO2 [Compound 95, (11R)-6-(2,6-Dimethylphenyl)-11-methyl-9-oxa-2λ^6-thia-3,5,12,19-tetraazatricyclo[12.3.1.14,8]nonadeca-1(17),4,6,8(19),14(18),15-hexaene-2,2,13-trione] |  |  |  |  | Ent. B Max Activity (CFTR [2]; Enteroid Assay B): ++ (++ is 30-60%); EC50 (CFTR [2]; Enteroid Assay B): 3000 to 30000 nM; Ent. A Max Activity (CFTR [1]; Enteroid Assay A): ++ (++ is 30-60%) |
| Cc1cccc(C)c1-c1cc2nc(n1)NS(=O)(=O)c1cccc(c1)C(=O)N[C@@H]1CN(C3CCC4(CC3)CC4)C[C@H]1O2 [Compound 376] | ++ (++ is 30-60%) | < 1000 | +++ (+++ is >60%) | < 1000 |  |
| Cc1cccc(C)c1-c1cc2nc(n1)NS(=O)(=O)c1cccc(c1)C(=O)NCC(c1ccc(C34CC(C3)C4)cc1)O2 (stereo not drawn) [Compound 396] | ++ (++ is 30-60%) | < 1000 | +++ (+++ is >60%) | < 1000 |  |
| Cc1cccc(C)c1-c1cc2nc(n1)NS(=O)(=O)c1cccc(c1)C(=O)N[C@@H]1CN(Cc3ccccc3)C[C@H]1O2 [Compound 383] | +++ (+++ is >60%) | < 1000 | +++ (+++ is >60%) | < 1000 |  |
| Cc1cccc(C)c1-c1cc2nc(n1)NS(=O)(=O)c1cccc(c1)C(=O)N[C@@H]1CN(c3ncc(C(F)(F)F)cn3)C[C@H]1O2 [Compound 372] | ++ (++ is 30-60%) | < 1000 | +++ (+++ is >60%) | < 1000 |  |
| Cc1cccc(C)c1-c1cc2nc(n1)NS(=O)(=O)c1cccc(c1)C(=O)NCC(CC(C)C)(CC(C)C)CO2 [Compound 496] | +++ (+++ is >60%) | < 1000 | +++ (+++ is >60%) | < 1000 |  |
| Cc1cccc(C)c1-c1cc2nc(n1)NS(=O)(=O)c1cccc(c1)C(=O)NC[C@H](c1ccc(/C=C/C(C)(C)C)cc1)O2 (stereo in doubt) [Compound 151] | +++ (+++ is >60%) | < 1000 | +++ (+++ is >60%) | < 1000 |  |
| Cc1cccc(C)c1-c1cc2nc(n1)NS(=O)(=O)c1cccc(c1)C(=O)N[C@@H]1CN(C(=O)CC(C)(C)C)C[C@H]1O2 [Compound 381] | ++ (++ is 30-60%) |  | ++ (++ is 30-60%) | 3000 to 30000 |  |
| Cc1cccc(C)c1-c1cc2nc(n1)NS(=O)(=O)c1cccc(c1)C(=O)N[C@@H]1CN(c3ccc(C(F)(F)F)cn3)C[C@H]1O2 [Compound 62, (3R,7R)-19-(2,6-Dimethylphenyl)-5-[5-(trifluoromethyl)pyridin-2-yl]-2-oxa-15λ^6-thia-5,8,16,18,21-pentaazatetracyclo[15.3.1.110,14.03,7]docosa-1(20),10(22),11,13,17(21),18-hexaene-9,15,15-trione] | ++ (++ is 30-60%) | < 1000 | +++ (+++ is >60%) | < 1000 |  |
| Cc1cccc(C)c1-c1cc2nc(n1)NS(=O)(=O)c1cccc(c1)C(=O)NC[C@@H](c1ccc(CC(C)(C)C)cc1)O2 [Compound 263] | ++ (++ is 30-60%) | < 1000 | +++ (+++ is >60%) | < 1000 |  |
| Cc1cccc(C)c1-c1cc2nc(n1)NS(=O)(=O)c1cccc(c1)C(=O)NC(C)(CC(C)C)CO2 (stereo not drawn) [Compound 177] | +++ (+++ is >60%) | < 1000 | +++ (+++ is >60%) | < 1000 |  |
| Cc1cccc(C)c1-c1cc2nc(n1)NS(=O)(=O)c1cccc(c1)C(=O)NCC(c1ccc([Si](C)(C)C)cc1)O2 (single isomer, unassigned) [Compound 17, 6-(2,6-dimethylphenyl)-2,2-dioxo-10-(4-trimethylsilylphenyl)-9-oxa-2λ^6-thia-3,5,12,19-tetrazatricyclo[12.3.1.14,8]nonadeca-1(18),4(19),5,7,14,16-hexaen-13-one] |  | < 1000 |  | < 1000 |  |
| Cc1cccc(C)c1-c1cc2nc(n1)NS(=O)(=O)c1cccc(c1)C(=O)N[C@@H]1CN(C3CC4(CCCC4)C3)C[C@H]1O2 [Compound 56, (3R,7R)-19-(2,6-Dimethylphenyl)-5-{spiro[3.4]octan-2-yl}-2-oxa-15λ^6-thia-5,8,16,18,21-pentaazatetracyclo[15.3.1.110,14.03,7]docosa-1(20),10(22),11,13,17(21),18-hexaene-9,15,15-trione] | ++ (++ is 30-60%) | < 1000 | +++ (+++ is >60%) | < 1000 |  |

Reference: US20230382924A1, “MODULATORS OF CYSTIC FIBROSIS TRANSMEMBRANE CONDUCTANCE REGULATOR” (VERTEX PHARMACEUTICALS INCORPORATED, priority 2020, published 2023)
